The values below come from patent US8119640B2, “Hedgehog pathway antagonists methods of use” (The Board of Trustees of the Leland Stanford Junior …, priority 2008, dated 2012).

One test has as its system Gli2 αPKA. The test is described as follows: Hh pathway activation by overexpressed Gli2 phosphosite mutants. The settings on record: NIH-3T3 cells; 15 μM HPI-1, 20 μM HPI-2. In kind it is cell-based. On the procedure:
Hh pathway activation mediated by the overexpression of Gli, Gli2, Gli2αPKA, or Gli2αGSK. […] The cells were co-transfected the following day with 220 ng/well pcDNA-derived Gli1, Gli2, or Gli2 phosphosite mutant expression vectors and 80 ng/well of a 1:15 mixture of phRLTK (Promega) and 8XGIiBS-FL. After transfection, cells were grown to confluence (approximately 48 h). The cell were then incubated for an additional 28-32 h in DMEM containing 0.5% CS, 100 U/mL penicillin, 0.1 mg/mL streptomycin, and either DMSO, 50 μM forskolin, 50 μM LY294002, or various concentrations of the HPIs. Firefly and Renilla luciferase activities were measured using a dual luciferase kit and a Veritas microplate luminometer.

For another test, the system named is FLAG-Gli1. The test is described as follows: Immunostaining of FLAG-Gli1 line: FLAG-Gli1 localization. In kind it is cell-based, mouse. Conditions: Shh-LIGHT2 FLAG-Gli1 cells. On the procedure: Immunostaining of FLAG-Gli lines and NIH-3T3 cells. The FLAG-Gli1-expressing or FLAG-Gli2-expressing clonal cell lines were seeded into 24-well plates (80,000 cells/well) containing poly-D-lysine-coated 12-mm glass coverslips. […] The cells were subsequently fixed in 4% paraformaldehyde for 10 min at room temperature followed by treatment with methanol at −20° C. for 2 to 5 min. The cells were washed with PBS, permeabilized with 0.2% Triton X-100 for 2 to 5 min, and then blocked with PBS containing 2% BSA for 3 h at room temperature. […] In order to quantify ciliary Gli2 localization, a circular region with diameter equal to the average width of cilia as determined by the anti-Arl13b antibody staining was manually placed at the distal end of each cilium. Regions were transferred from the anti-Arl13b antibody image to the anti-FLAG antibody image, and FLAG staining intensities within those areas were assessed. Between 40 and 80 cilia were analyzed for each condition. To normalize ciliary FLAG-Gli2 levels with respect to compound-dependent changes in total FLAG-Gli2 levels, the absolute average intensities for each condition were divided by the fold change in FLAG-Gli2 levels, as determined by the quantitative immunoblotting described above. Quantification of ciliary FLAG-Gli1 levels was performed in an analogous manner. […]

As for `COCCOC(=O)C1=C(C)NC2=C(C(=O)CC(c3ccccc3OC)C2)C1c1cccc(O)c1` (mixture of isomers) [Compound 8, 4-(3-Hydroxy-phenyl)-7-(2-methoxy-phenyl)-2-methyl-5-oxo-1,4,5,6,7,8-hexahydro-quinoline-3-carboxylic acid 2-methoxy-ethyl ester], the “Sensitivity of overexpressed Gli2 αPKA mutant to compound” value with Gli2 αPKA was “partially resistant”.
In the case of `N#CC(C(=O)c1ccc(Cl)cc1Cl)=C1NC(=O)c2ccccc2N1` [Compound 18], in the test with FLAG-Gli1, the “Ciliary FLAG-Gli1 levels” value is “promoted accumulation of FLAG-Gli1 at the distal tip of this organelle relative to total FLAG-Gli1 levels” and the “Subcellular localization of FLAG-Gli1” value is given as “reduced cytoplasmic levels of the transcription factor but retained nuclear FLAG-Gli1”.
`COc1ccc(OC)c2c1cc1n2CC(C)(C(=O)NC2CCCCCCC2)N(CCN(C)C)C1=O` (stereo not shown) [Compound 17]: the “Sensitivity of overexpressed Gli2 αPKA mutant to compound” value in the test on Gli2 αPKA is given as “partially resistant”.
